Results published in patent publication US20220000967A1, “SYNTHETIC PEPTIDES INDUCING IMMUNOGENIC CELL DEATH” (SORBONNE UNIVERSITE, priority 2018, published 2022).

Key:
L5178Y-R tumor [1] = test: PKHB1 treatment of L5178Y-R tumor-bearing mice; assay type: in vivo, BALB/c mice
Procedure: The heparinized blood acquired from mice, was assessed using the Automatic Hematology Analyzer KontroLab. Blood smears were performed and fixed with methanol, stained with Wright's, and observed under the microscope to perform differential blood white cells counts.
(§1) Six-to-eight-week-old BALB/c female mice were maintained in controlled environmental conditions (25° C. and 12h light/dark cycle) and were supplied with rodent food (Science diet) and water ad libitum. • Prophylactic vaccinations: L5178Y-R cells (1.5, 3, 5×10^6) were treated with 300 μM of PKHB1 (CC100) for 2h. Cell death was confirmed using trypan blue staining and flow cytometry. Treated cells were inoculated subcutaneously in 100 μl PBS into the left hind of the leg, whereas 2×10^6 untreated control cells were inoculated into the right hind 7 days later (42). • Tumor establishment and measurement: Tumor was established by the subcutaneous injection of 1×10^6 L5178Y-R cells in 100 μL PBS, into the left hind of the leg. Tumor volume and weight were measured three times per week using a caliper (Digimatic Caliper Mitutoyo Corporation, Japan) and a digital scale (American Weigh Scale-600-BLK, USA). When the tumor reached 100 mm^3 the first PKHB1 injection (200 μg) was applied (day 0). Tumor volume was determined with the formula: tumor volume (mm3)=[…]*A*B*C. Long-term memory assay: Mice in complete remission after PKHB1 treatment, were rechallenged with 2×10^6 cells in 100 μL of PBS, into the opposite limb, and tumor volume was measured like described above.
Tissues and organs were obtained and fixed in 10% neutral formalin, embedded in paraffin, sectioned (5 µm thickness) and stained with H&E (Sigma-Aldrich, St Louis, Mo., USA). Histopathological analysis was done by an external veterinarian pathologist (National professional certificate 2593012). Immunohistochemistry was done using the appropriate primary antibody (CD4/CD8) and adding the biotinylated secondary antibody. Finally, hematoxylin-counterstained slides are coverslipped using resin as mounting solution and observed under microscopy.

L5178Y-R [2] = test: HMGB1 release assay (ELISA); assay type: cell-based, murine; details: PKHB1 CC100, 2h
Procedure: (§2) Supernatants of untreated and treated (PKHB1 CC50 and CC100 for each cell line) leukemic cells (1×10^6 cells/mL) were used to measure extracellular HMGB1 using the HMGB1 ELISA kit for CEM, MOLT-4 or L5178Y-R cells (BioAssay ELISA kit Human or mouse respectively, US biological Life Science Salem, Mass., USA), following the manufacturer instructions. Absorbance was assessed at 450 nm.

L5178Y-R [3] = test: Western blot of HSP90, HSP70, CRT and HMGB1; assay type: cell-based, murine; details: CC50 and CC100, 2h
Procedure: 1×10^6 cells/mL were seeded in a serum-free culture medium and treated with PKHB1 (CC50 and CC100 for each cell line) or left alone (Control) for 2h. Supernatants was recovered and lysed with lysis buffer (20 mM Tris pH 6.8, 2 mM EDTA, 300 mM NaCl and SDS 2%). Protein concentration was measured using the DC Protein Assay kit (Bio-Rad, Hercules, Calif., USA) and 50 μg of protein were loaded into SDS-PAGE gels. After blotting, nitrocellulose filters were probed with primary antibodies (1:1000) against HMGB1 (HAP46.5: sc-56698), HSP70 (C92F3A-5: sc-66048), HSP90 (F-8: SC-13119) and Calreticulin (F-4: sc373863). Anti-mouse or anti-rabbit-HRP served as secondary antibodies (Santa Cruz Biotechnology, CA, USA). Visualization was performed with ECL substrate system (Thermo Scientific, Waltham, Mass., USA).

L5178Y-R tumor [4] = test: Long-term memory assay, rechallenge of mice in remission after PKHB1 treatment; assay type: in vivo, BALB/c mice; details: mice with complete regression after PKHB1-treatment, rechallenged with 2×10^6 L5178Y-R viable cells
Procedure: as §1

CEM [5] = test: Calreticulin exposure (flow cytometry, confocal microscopy); assay type: cell-based, human; details: CC50 of PKHB1, 2h
Procedure: (§3) 1×10^6 cells/mL were plated, treated with PKHB1, and incubated for 2h. Cells were harvested, washed, and stained with Calreticulin-PE (FMC-75, Enzo Life Science, Farmingdale, N.Y., USA) antibody (1:1000) in FACS buffer. After 1h of incubation in darkness at room temperature, cells were washed and resuspended in 100Lp of FACS buffer to be assessed by flow cytometry. For confocal microscopy (OlympusX70), poly-Llysine was added 24h to sterile coverslips and 1×10^6 cells/mL were seeded. PKHB1 was added and incubated for 2h. Then, the cells were stained with Calreticulin-PE antibody (1:500) and Hoechst, incubated 1h, and assessed by confocal microscopy.

MOLT-4 [6] = test: as above; assay type: cell-based, human; details: CC50 of PKHB1, 2h
Procedure: as §3

L5178Y-R [7] = test: as above; assay type: cell-based, murine; details: CC50 of PKHB1, 2h
Procedure: as §3

CEM [8] = test: HMGB1 release assay (ELISA); assay type: cell-based, human; details: PKHB1 CC100, 2h
Procedure: as §2

MOLT-4 [9] = test: HMGB1 release assay (ELISA); assay type: cell-based, human
Procedure: as §2

CEM [10] = test: ATP release assay (luciferase bioluminescence); assay type: cell-based, human; details: CC50 and CC100, 2h
Procedure: (§4) 1×10^6 cells/mL were treated with PKHB1 (CC50 and CC100 for each cell lines) for 2h. Supernatants were used to assess extracellular ATP by a luciferase assay (ENLITEN kit, Promega, Madison Wis., USA) following the manufacturer's instructions. Bioluminescence was assessed in a microplate reader (Synergy HT, BioTek, Software Gen5, Winooski, Vt., USA) at 560 nm.

MOLT-4 [11] = test: ATP release assay (luciferase bioluminescence); assay type: cell-based, human; details: CC50 and CC100, 2h
Procedure: as §4

[12] = Cell death by Annexin-V-APC/PI flow cytometry; assay type: cell-based, murine; details: L5178Y-R, 2h; read-out: cytotoxic concentration that induces around 50% of cell death (CC50)
Procedure: (§5) CEM, MOLT-4 (T-acute lymphoblastic leukemia, T-ALL), and L5178Y-R (murine lymphoblastic T cell line) were obtained from ATCC. Human and murine PBMCs, human CD4+ and CD8+ T cells, and primary lymphoid organ's cells were obtained from healthy individuals. Cells were maintained in RPMI-1640 medium supplemented with 10% of fetal bovine serum, 2 mM L-glutamine, 100 U/mL penicillin-streptomycin (GIBCO by Life Technologies, Grand Island, N.Y., USA), and incubated at 37° C. in a controlled humidified atmosphere with 5% CO2. Cell count was performed using trypan blue (0.4% Sigma-Aldrich), a Neubauer chamber and an optic microscope (Zeiss Primo Star) as proposed by the ATCC's standard protocols. Flow Cytometry. Cell Death Induction, and Inhibition Annexin-V-allophycocyanin (Ann-V-APC 0.1 μg/ml; BD Pharingen, San Jose Calif., USA), propidium iodide (PI, 0.5 μg/ml Sigma-Aldrich), and tetramethylrhodamine ethyl ester (TMRE, 20 nM, Sigma-Aldrich) were used for phosphatidylserine exposure, cell viability, and mitochondrial transmembrane potential (UΨm) quantification, respectively, in a BD AccuryC6 flow cytometer (BD Biosciences) (total population 10,000 cells). Data were analyzed using FlowJo software. 1×10^6 cells/mL were treated for 2h with PKHB1 (as indicated). For the inhibition assays, calcium chelator, BAPTA (5 mM, CalbioChem, Merck, Billerica Mass., USA); or the pancaspase inhibitor Q-VD-OPh (QVD, 10 μM, BioVision, Milpitas Calif., USA); were added 30 min before PKHB1.

L5178Y-R [13] = test: Cell death by Annexin-V-APC/PI flow cytometry; assay type: cell-based, murine; details: 2h; for cell death percentage: PKHB1 200 μM
Procedure: as §5

[14] = PKHB1-treated vs untreated tumor-bearing mice, trypan blue count

Compound: CSCC[C@H](NC(=O)[C@@H](NC(=O)[C@@H](NC(=O)[C@H](Cc1ccc(O)cc1)NC(=O)[C@H](Cc1ccccc1)NC(=O)[C@H](CCCNC(=N)N)NC(=O)[C@H](N)CCCCN)C(C)C)C(C)C)C(=O)N[C@@H](Cc1c[nH]c2ccccc12)C(=O)N[C@@H](CCCCN)C(=O)N[C@H](CCCCN)C(=O)O [PKHB1, (D)K-R-F-Y-V-V-M-W-K-(D)K]
- immunohistochemistry of tumor sections, CD4+ and CD8+ cells (L5178Y-R tumor [1]; PKHB1-treated tumor-bearing mice): presence of CD4+ and CD8+ cells
- WBC differential (L5178Y-R tumor [1]; PKHB1-treated tumor-bearing mice vs healthy mice): no significant difference
- cell number of BM, spleen and thymus cells (L5178Y-R tumor [1]; [14]): significant increase
- cell number of lymph nodes (L5178Y-R tumor [1]; [14]): significant decrease
- HMGB1 release compared to the untreated control (L5178Y-R [2]): 2 fold
- expression of HSP90, HSP70, CRT and HMGB1 in cellular lysates (L5178Y-R [3]): decrease
- expression of HSP90, HSP70, CRT and HMGB1 in supernatants (L5178Y-R [3]; vs untreated cells): increased
- rechallenged mice that developed the tumor (L5178Y-R tumor [4]): ≈ 17%
- survival of re-challenged mice (Kaplan-Meier) (L5178Y-R tumor [4]): 90%
- CRT exposure (CEM [5]): significant increase
- CRT exposure (MOLT-4 [6]): significant increase
- CRT exposure (L5178Y-R [7]): significant increase
- HMGB1 release compared to the untreated control (CEM [8]): 6 fold
- HMGB1 release with respect to the control (MOLT-4 [9]; PKHB1 CC50, 2h): 8 fold
- HMGB1 release compared to the untreated control (MOLT-4 [9]; PKHB1 CC100, 2h): 4 fold
- presence of ATP in supernatants (CEM [10]): significantly augmented
- presence of ATP in supernatants (MOLT-4 [11]): significantly augmented
- CC50 [12]: 200 µM
- cell death (Ann-V-APC/PI positive cells) (L5178Y-R [13]; 100, 200 and 300 μM): concentration-dependent
- CC100 (L5178Y-R [13]): 300 µM
- cell death percentage (L5178Y-R [13]; left alone): 52%±5
- cell death percentage (L5178Y-R [13]; pre-incubated 30 min with Ca2+ chelator BAPTA): 21%±8
- cell death percentage (L5178Y-R [13]; pre-incubated 30 min with pan-caspase inhibitor Q-VD-OPH): 49%±3
